From ChEMBL document CHEMBL1137544, “Syntheses of immunomodulating androstanes and stigmastanes: comparison of their TNF-alpha inhibitory activity” (Bioorg Med Chem, 2007)
pIC50: −log10 of the molar value. The source made the active and inactive calls. No cut-off for these calls is given here.

Assays:
J774.A1 [1] = assay: Inhibition of LPS-induced TNFalpha production in mouse J774A.1 cells; format: functional, cell-based
J774.A1 [2] = assay: Cytotoxicity against mouse J774A.1 cells; format: cell-based

SMILES | pIC50 (J774.A1 [1]) | also measured
C[C@]12CC[C@H](O)CC1=CC[C@@H]1[C@@H]2CC[C@]2(C)C(=O)CC[C@@H]12 [PRASTERONE] | 6.85 | 
CC[C@@H](C(C)C)[C@@H](O)[C@H](O)[C@@H](C)[C@H]1CC[C@H]2[C@@H]3CC(=O)[C@@]4(O)C[C@@H](F)CC[C@]4(C)[C@H]3CC[C@]12C |  | Activity (J774.A1 [2]): Toxic
CC[C@@H](C(C)C)[C@H](O)[C@@H](O)[C@@H](C)[C@H]1CC[C@H]2[C@@H]3CC=C4C[C@@H](O)CC[C@]4(C)[C@H]3CC[C@]12C | 7.46 | 
CC[C@@H](C(C)C)[C@H](O)[C@@H](O)[C@@H](C)[C@H]1CC[C@H]2[C@@H]3CC(=O)[C@@]4(O)C[C@@H](Br)CC[C@]4(C)[C@H]3CC[C@]12C | 7.42 | 
CC[C@@H](C(C)C)[C@H](O)[C@@H](O)[C@@H](C)[C@H]1CC[C@H]2[C@@H]3CC(=O)[C@@]4(O)C[C@@H](O)CC[C@]4(C)[C@H]3CC[C@]12C | 7.74 | 
CC[C@@H](C(C)C)[C@@H](O)[C@H](O)[C@@H](C)[C@H]1CC[C@H]2[C@@H]3CC(=O)[C@@]4(O)C[C@@H](Br)CC[C@]4(C)[C@H]3CC[C@]12C |  | Activity (J774.A1 [2]): Toxic
C[C@]12CC[C@H]3[C@@H](CC(=O)[C@@]4(O)C[C@@H](O)CC[C@]34C)[C@@H]1CCC2=O | 6.96 | 
CC[C@@H](C(C)C)[C@H](O)[C@@H](O)[C@@H](C)[C@H]1CC[C@H]2[C@@H]3CC=C4C[C@@H](Br)CC[C@]4(C)[C@H]3CC[C@]12C | 6.84 | 
C[C@]12CC[C@H]3[C@@H](CC(=O)[C@@]4(O)C[C@@H](Br)CC[C@]34C)[C@@H]1CCC2=O | 6.87 | 
CC[C@@H](C(C)C)[C@H](O)[C@@H](O)[C@@H](C)[C@H]1CC[C@H]2[C@@H]3CC=C4C[C@@H](Cl)CC[C@]4(C)[C@H]3CC[C@]12C |  | Activity (J774.A1 [1]): inactive
C[C@]12CC[C@H]3[C@@H](CC(=O)[C@@]4(O)C[C@@H](Br)CC[C@]34C)[C@@H]1CCC(=O)O2 |  | Activity (J774.A1 [1]): inactive
CC[C@@H](C(C)C)[C@H](O)[C@@H](O)[C@@H](C)[C@H]1CC[C@H]2[C@@H]3CC(=O)[C@@]4(O)C[C@@H](F)CC[C@]4(C)[C@H]3CC[C@]12C | 7.33 | 
CC[C@@H](C(C)C)[C@H](O)[C@@H](O)[C@@H](C)[C@H]1CC[C@H]2[C@@H]3CC=C4C[C@@H](F)CC[C@]4(C)[C@H]3CC[C@]12C |  | Activity (J774.A1 [1]): inactive
C[C@@H]1C[C@H]2[C@@H]3CCC4=CC(=O)C=C[C@]4(C)[C@@]3(F)[C@@H](O)C[C@]2(C)[C@@]1(O)C(=O)CO [DEXAMETHASONE] | 7.32 | 
